Reference: patent US11918548B2, “Treatment of avascular or hypovascular micro-tumors” (Katholieke Universiteit Leuven, priority 2017, dated 2024)
Where “and” joins values, the source holds several entries; their conditions need not be identical. Identical values can stand only once.

Key:
rhabdomyosarcomas (R1) = assay: CA4P in rats with liver implantation of micro rhabdomyosarcomas (R1); format: in vivo, rat
Description: To verify whether the above unexpected findings can be supported in other types of solid tumors, we intentionally studied CA4P in a group of rats with liver implantation of rhabdomyosarcomas (R1) ranging from 1 to 5 mm in diameter as monitored by noninvasive longitudinal MRI and verified by postmortem techniques. R1 has been extensively studied on VDA research before but in much larger tumor size.

[1] = system: subcutaneous rhabdomyosarcomas; conditions: large tumors (≥14 cm^3) versus small tumors (<1 cm^3); cited from earlier work
[2] = system: primary hepatocellular carcinomas (HCCs); assay: CA4P-induced tumoral necrosis in DENA-induced primary HCCs on cirrhotic liver (histopathology, microangiography); format: in vivo, rat
Description: (§1) Tumor growth was monitored weekly by MRI from the 9th week after DENA administration until the largest tumor lesion attained more than 1 mm in diameter. All recruited tumor-carrying rats received single intravenous injection of CA4P at 10 mg/kg. T2WI, T1WI, DWI and CE-T1WI were performed 4 h before and 12 h after CA4P therapy. Rats were euthanized after the last time point of MRI for postmortem microangiography and histopathology.
After the last MRI scanning, rats were anesthetized by an intraperitoneal injection of pentobarbital at 50 mg/kg. Then laparotomy was performed with blood collected via postcava and abdominal aorta cannulated, through which barium suspension was injected before the entire tumor-bearing liver was excised. With a digital mammography unit (Em-brace; Agfa-Gevaert, Mortsel, Belgium), postmortem hepatic arteriography was made at 26 kV, 32 mAs to document changes in tumor vascularity. The livers were then fixed and sliced into 3-mm sections in the axial plane corresponding to the MR images, and these sections were radiographed at 26 kV, 18 mAs for qualitative analysis.
(§2) After microangiography, the tumor sections were paraffin imbedded, sliced into 5 μm thickness and stained with hematoxylin and eosin (H&E) for microscopic analysis using an Axiovert 200M microscope equipped with an AxioCam MR monochrome digital camera (Carl Zeiss Inc, Gottingen, Germany) and by AxioVision 4.8 software.
Due to the high analogy to the histopathological progression observed in human liver cancer, rat primary HCCs were diagnosed according to the classical histomorphologic features: malignant hepatocytic tumors, often well vascularized, with wide trabeculae (>3 cell layers), noticeable acinar pattern, small cell changes, cytologic atypia, prominent nucleoli, mitotic activity, vascular invasion, absence of Kupffer cells and the loss of the reticulin network. The differentiation of rat HCCs was further classified into Grade I-IV using a modified 4-scale Edmondson and Steiner system [Schlageter et al. cited above].
Digital images of tumor slices at a magnification of 12.5 were used to estimate the percentage of tumor necrosis by ImageJ software [Buijs et al. (2011) J Vasc Intery Radiol 22, 1175-1180]. Briefly, regions of interest were delineated around the entire tumor and the necrotic tumor, respectively, to get ‘necrotic ratio on each section’. For each tumor section, the axial slide representing this tumor block was selected as ‘section area’. Tumor necrosis on each H&E stained slice was estimated independently by 2 pathologists, and calculated with the equation: Intratumoral necrosis ratio (%)=Σ[Necrotic ratio on each section (%)×section area (mm^2)]×section thickness (mm)/[4/3π r^3] (mm^3).
Statistical analyses were carried out by GraphPad Prism (version 7.02, GraphPad Software Inc, La Jolla, Calif., USA). The Pearson's correlation coefficient was calculated between percentile tumoral necrosis calculated by histopathology and tumor diameter measured from T2WI. Numerical data were presented as mean±standard errors of the mean (SEM). Comparison of percentile tumoral necrosis was performed by unpaired […] t-test; results of ADCs between tumor and liver background were compared by two-way ANOVA. A significant difference was concluded for P<0.05.

macro- and micro-cancers = conditions: input of the model; cited from earlier work
[3] = system: micro-HCCs and cirrhotic liver; assay: In vivo MRI (DWI-derived ADCperf/ADCdiff, T2WI, CE-T1WI) of micro-HCCs and surrounding cirrhotic liver after CA4P; set-up: species or system rat
Description: Images were acquired on a clinical 3.0T MRI scanner (MAGNETOM Prisma; Siemens, Erlangen, Germany) and a human wrist coil (Hand/Wrist 16, A 1.5 T Tim coil, Siemens). Twenty axial images were acquired, with a slice thickness of 2.0 mm and a gap of 0.4 mm. T2-weighted (repetition time, 4000 ms; echo time, 70 ms; flip angle, 150°; field of view, 75×56 mm^2; matrix, 256×192) and T1-weighted (repetition time, 626 ms; echo time, 15 ms; flip angle, 160°; field of view, 75×56 mm^2; matrix, 256×192) turbo spin echo (TSE) images (T2WI, T1WI) were performed weekly to monitor tumor growth, while T2WI, T1WI, diffusion-weighted imaging (DWI) and consecutive contrast-enhanced (CE-) T1WIs were acquired to evaluate CA4P treatment. For DWI, a 2-dimensional SE echo-planar imaging (EPI) sequence (repetition time, 3500 ms; echo time, 62 ms; flip angle, 90°; field of view, 136×74 mm2; matrix, 96×52) with 8 b values (0, 50, 100, 150, 400, 600, 800 and 1000 seconds/mm^2) was acquired. For CE-MRI, a bolus of 0.2 mmol/kg Gd-DOTA was injected before a series of CE-T1WIs were acquired.?
as §1
On DWI, tumor area was manually contoured with an operator-defined region of interest (ROI) on all tumor-containing images. ADC map was calculated from DWI to quantify therapeutic responses by the following mono-exponential formula: Si=S0×exp (−bi×ADC), in which Si is the signal intensity (SI) measured on the ith b value image, bi is the corresponding b value, and S0 is a variable estimating the intrinsic SI (for b=0 seconds/mm^2).
For the calculation of different ADC values, tumors were freehand delineated only on the central slices with the largest cross-sectional areas on the original DWIs at the b value of 1000 s/mm^2, in order to avoid partial volume effects. The delineation of each tumor lesion was copied to all images with different b values automatically. The average SI per tumor and per b value was then determined. The difference between ADClow (b=0, 50 and 100 s/mm^2) and ADChigh (b=600, 800 and 1000 s/mm^2) was defined as ADCperf to reflect the tissue microcapillary perfusion, while ADChigh was defined as ADCdiff [Chen et al. (2007) Methods. 43, 12-20].

implanted tumor models = conditions: in vivo; cited from earlier work
cirrhotic liver = assay: Tolerability of the procedures and liver damage in cirrhotic rats after CA4P; format: in vivo, rat
Description: as §1, §2

[4] = system: rodent sarcoma, squamous cell carcinoma, fibrosarcoma, human renal cell carcinoma, Kaposi's sarcoma and breast carcinoma; conditions: intraperitoneal injection; cited from earlier work
[5] = micro-HCC, CA4P 10 mg/kg iv, 12 h
[6] = 12 h after CA4P 10 mg/kg iv versus baseline

COc1ccc(/C=C\c2cc(OC)c(OC)c(OC)c2)cc1OP(=O)(O)O [CA4P, combretastatin A-4 phosphate]
histology of representative micro R1 tumor (rhabdomyosarcomas (R1); 12 h after CA4P treatment, HE stained microscopy): massive and partial hemorrhagic tumor necrosis
necrosis in liver-implanted R1 lesions (rhabdomyosarcomas (R1); R1 of 1 to 5 mm in diameter, 10 out of 11 lesions): over 90%
CA4P efficacy in large tumors relative to small tumors [1]: 16.6 fold
tumoral necrosis, hypovascular Grade I-II well-differentiated micro-HCCs (Tumor 1-5) ([2]; histopathology, CA4P 10 mg/kg iv, 12 h): 82.77-96.45%
tumoral necrosis, Grade IV undifferentiated Tumor 7 (vascular lakes) [2, 5]: minimal necrosis
tumoral necrosis, hypervascular Grade III poorly differentiated Tumor 6 [2, 5]: 23.15%
rate of tumoral necrosis in hepatic microcancers higher than in larger HCCs ([2]; micro-HCCs ≤5 mm versus HCCs >5 mm, CA4P 10 mg/kg iv, 12 h): 36.9% and 36.93%
correlation of CA4P-induced tumoral necrosis with tumor diameter, micro-HCCs ([2]; tumors with diameters of ≤5 mm): not linearly correlated
tumour necrosis (α) known to be induced (macro- and micro-cancers): 50-99%
ADCdiff in micro-HCC tumor ([3]; 12 h after CA4P 10 mg/kg iv): slightly rose
ADCdiff in surrounding cirrhotic liver ([3]; 12 h after CA4P 10 mg/kg iv): nearly unchanged
ADCperf (blood perfusion) in micro-HCC tumor [3, 6]: drop of tumor perfusion
ADCperf (blood perfusion) in surrounding cirrhotic liver [3, 6]: sharply decreased blood perfusion
duration of continuous liver ischemia ([3]; cirrhotic liver, CA4P 10 mg/kg iv): at least 12 h
tumoral necrosis on MRI, representative microcancer Tumor 1 ([3]; twelve hours after CA4P treatment, T2WI, ADC, CE-T1WI): massive tumoral necrosis
onset of tumor vascular disruption (implanted tumor models): less than 1 hour
time to extensive intratumoral necrosis (implanted tumor models): ≤ 12 h
survival of rats (cirrhotic liver; DENA gavage, anesthesia, MRI with contrast and intravenous CA4P treatment, 19 rats): All rats survived
necrosis in cirrhotic liver parenchyma (cirrhotic liver; microscopy, 12 h after CA4P 10 mg/kg iv): necrotic foci scattered in the cirrhotic liver

COc1cc2c(c(OC)c1OC)-c1ccc(OP(=O)(O)O)cc1[C@@H](NC(C)=O)CC2 [ZD6126, N-acetylcochinol-O-phosphate]
necrosis in tumors larger than 1 g [4]: ~90%
necrosis in tumors of less than 0.3 g [4]: ~25%
